Measurements taken from patent US7687484B2, “Transporter enhanced corticosteroid activity” (priority 2006, dated 2010).
Entries after “also recorded” stand apart in the source; their conditions may differ. Like-named read-outs stand apart in the source and are kept apart here.

What was measured:
[1] = target: T1, Corticosteroid Binding Globulin (CBG), transcortin (Homo sapiens, UniProt P08185); conditions: cited from earlier work; for Class: CBG binding activity class; for Log 1/K: CBG binding affinity, literature data
T1 sequence (P08185 23-405): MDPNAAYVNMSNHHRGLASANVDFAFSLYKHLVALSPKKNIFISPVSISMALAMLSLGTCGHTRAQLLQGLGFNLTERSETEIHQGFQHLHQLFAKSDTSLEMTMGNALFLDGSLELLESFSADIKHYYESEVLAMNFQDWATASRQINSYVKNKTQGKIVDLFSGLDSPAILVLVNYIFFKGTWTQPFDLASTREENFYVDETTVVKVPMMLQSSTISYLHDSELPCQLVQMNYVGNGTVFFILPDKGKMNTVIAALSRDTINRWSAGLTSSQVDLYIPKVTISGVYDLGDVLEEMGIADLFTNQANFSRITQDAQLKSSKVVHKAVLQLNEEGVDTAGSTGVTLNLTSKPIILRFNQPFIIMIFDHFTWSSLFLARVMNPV

transcortin (CBG) = target: T2, transcortin (CBG) (Homo sapiens, UniProt P08185); test: Binding of corticosteroids to transcortin: 3H-cortisol competition in charcoal-treated diluted plasma
T2 construct: from tissue; host or cells: plasma from venous blood of healthy volunteers, charcoal-treated, diluted 100-fold
T2 sequence (P08185 23-405): T1 sequence (P08185 23-405)
Method: Experimental procedure: Venous blood was collected from healthy volunteers into heparin-containing tubes (5 Us/100 ml serum) and cells were separated from plasma by centrifugation (1500 g for 15 min). […] Charcoal-treated plasma was diluted 100-fold with binding buffer (10 mM Tris-HCl; 2 mM DTT (dithiotreitol); 1.5 mM EDTA; 0.02 M Na2MoO4; 10% Glycerol; pH 7.4) and was stored aliquoted at −80° C. […] The assay ingredients were mixed and the tubes were incubated for 1 hour on ice. At the end of the incubation, 0.2 ml of charcoal suspension (0.5% Norit A and 0.05% BSA) was added to each tube. The tubes were briefly agitated and incubated for an additional 10 min at 0° C. They were then centrifuged for 10 min at 15 000 g, and the same aliquots from the clear supernatants were quantitatively decanted into counting vials and combined with 3 ml of toluene-based scintillation fluid. […] Specific binding and IC50-values were calculated.

[2] = test system: forearms of human volunteers; test: Human vasoconstriction (blanching) testing; assay type: in vivo; design: key to Vasoconstriction activity (total score of 4 tests): sum of 4 tests, each 0 = normal skin to 4 = very intense pallor
Method: Solutions of LE, HC and PRN (0.1 or 1 mM) alone, or mixtures of LE and HC (0.1+0.1 mM, or 1+1 mM), or LE and PRN (0.1+0.1 mM, or 1+1 mM) were prepared with a vehicle containing absolute ethanol and propylene glycol (9:1). […] After evaporation of ethanol (20 min), the films were applied to the forearms of human volunteers for 4 hours. Subsequently, the vasoconstriction reaction was read and judged by the appearance of pallor at various time intervals after the removal of the discs and films. The grading scale was as follows: 0, normal skin; 1, slight pallor; 2, pallor with at least two corners outlined; 3, even pallor with a clear outlined of the application sites; 4, very intense pallor. Due to the relatively high variations in response between the volunteers, a total score of 4 tests at each time point was taken for the activity evaluation.

[3] = 3 nM 3H-cortisol, 1 hour on ice, plasma diluted 100-fold, read-out: IC50-values (nM) average ± SEM (n)
[4] = estimated, unpublished results Bodor, Kurucz 2006, read-out: CBG Est. IC50

Structure (SMILES)	Class [1]	Log 1/K [1]	further results
C[C@@H]1C[C@@]2(C)C(=CC1=O)CC[C@H]1[C@@H]3CC[C@](O)(C(=O)CO)[C@@]3(C)C[C@H](O)[C@@]12F [2α-methyl-9α-fluoro-cortisol]	2	−5.797	
CC1CC2(C)C(=CC1=O)CCC1C2C(O)CC2(C)C1CCC2(O)C(=O)CO (stereo not drawn) [2α-methylcortisol]	1	−7.688	
C[C@]12CCC(=O)C=C1CC[C@@H]1[C@@H]2CC[C@]2(C)C(=O)CC[C@@H]12 [4-androstenedione]	3	−5.763	
CC(=O)[C@H]1CC[C@H]2[C@@H]3CCC4=CC(=O)CC[C@]4(C)[C@H]3C(=O)C[C@]12C [4-pregnene-3,11,20-trione]	2	−6.779	
C[C@]12CC[C@H]3[C@@H](CCC4=CC(=O)CC[C@@]43C)[C@@H]1CC[C@@H]2C(=O)CO [11-deoxycorticosterone]	1	−7.653	
C[C@]12CCC(=O)C=C1CC[C@@H]1[C@@H]2CC[C@@]2(C)[C@H]1CC[C@]2(O)C(=O)CO [11-deoxycortisol]	1	−7.881	
CC(=O)[C@@]1(O)[C@H](O)C[C@H]2[C@@H]3CCC4=CC(=O)CC[C@]4(C)[C@H]3CC[C@@]21C [16α,17α-dihydroxyprogesterone]	2	−6.247	
CC(=O)[C@H]1[C@H](C)C[C@H]2[C@@H]3CCC4=CC(=O)CC[C@]4(C)[C@H]3CC[C@@]21C [16α-methylprogesterone]	1	−7.120	
CC(=O)[C@@]1(O)CC[C@H]2[C@@H]3CC=C4C[C@@H](O)CC[C@]4(C)[C@H]3CC[C@@]21C [17α-hydroxypregnenolone]	3	−5.000	
CC(=O)[C@@]1(O)CC[C@H]2[C@@H]3CCC4=CC(=O)CC[C@]4(C)[C@H]3CC[C@@]21C [17α-hydroxyprogesterone]	1	−7.740	
CC(=O)[C@H]1CC[C@H]2[C@@H]3CCC4=CC(=O)CC[C@@H]4[C@H]3CC[C@]12C [19-norprogesterone]	2	−6.817	
C[C@]12CC[C@H]3[C@@H](CCC4=CC(=O)CC[C@@H]43)[C@@H]1CC[C@@H]2O [19-nortestosterone]	2	−6.144	
COC(=O)[C@@]1(O)CCC2C3CCC4=CC(=O)CC[C@]4(C)C3[C@@H](O)C[C@@]21C (stereo partly drawn) [CA-Me GYKI-25806]			IC50 (transcortin (CBG); [3]): 5.9 ± 1.4 nM
C[C@]12C=CC(=O)C=C1CC[C@@H]1[C@@H]2[C@@H](O)C[C@@]2(C)[C@H]1C[C@H]1O[C@@H](C3CCCCC3)O[C@]12C(=O)CO [Ciclesonide, act. metab.]			IC50 (transcortin (CBG); [4]): > 10000 nM
C[C@@H]1C[C@H]2[C@@H]3CCC4=CC(=O)C=C[C@]4(C)[C@@]3(Cl)[C@@H](O)C[C@]2(C)[C@@]1(OC(=O)c1ccco1)C(=O)CCl [Mometasone furoate]			IC50 (transcortin (CBG); [4]): > 10000 nM
C[C@]12C=CC(=O)C=C1CCC1C2[C@@H](O)C[C@@]2(C)C1CC[C@]2(O)C(=O)CO (stereo partly drawn) [Prednisolone, prednisolone]	1		Vasoconstriction activity (total score of 4 tests) ([2]; 0.1 mM, 2 hr after removal, 4 h application): 0; Vasoconstriction activity (total score of 4 tests) ([2]; 0.1 mM, 4 hr after removal): 0; Vasoconstriction activity (total score of 4 tests) ([2]; 0.1 mM, 6 hr after removal): 0; Vasoconstriction activity (total score of 4 tests) ([2]; 0.1 mM, 8 hr after removal): 0; Vasoconstriction activity (total score of 4 tests) ([2]; 0.1 mM, 10 hr after removal): 0; Vasoconstriction activity (total score of 4 tests) ([2]; 0.1 mM, 16 hr after removal): 0; Vasoconstriction activity (total score of 4 tests) ([2]; 0.1 mM, 18 hr after removal): 0; Vasoconstriction activity (total score of 4 tests) ([2]; 0.1 mM, 24 hr after removal): 0; Vasoconstriction activity (total score of 4 tests) ([2]; 1 mM, 2 hr after removal, 4 h application): 0; Vasoconstriction activity (total score of 4 tests) ([2]; 1 mM, 4 hr after removal): 0; Vasoconstriction activity (total score of 4 tests) ([2]; 1 mM, 6 hr after removal): 0; Vasoconstriction activity (total score of 4 tests) ([2]; 1 mM, 8 hr after removal): 0; Vasoconstriction activity (total score of 4 tests) ([2]; 1 mM, 10 hr after removal): 0; Vasoconstriction activity (total score of 4 tests) ([2]; 1 mM, 16 hr after removal): 0; Vasoconstriction activity (total score of 4 tests) ([2]; 1 mM, 18 hr after removal): 0; Vasoconstriction activity (total score of 4 tests) ([2]; 1 mM, 24 hr after removal): 0; Vasoconstriction activity alone (in words) ([2]; by itself, concentration range 0.1 to 1 mM, human skin, listed as PRN): do not yield any detectable activity; also recorded: no activity; IC50 (transcortin (CBG); CBG Est. IC50 (nM), estimated, unpublished results Bodor, Kurucz 2006): 7 nM; IC50 (transcortin (CBG); IC50-values (nM) average ± SEM (n), 3 nM 3H-cortisol, 1 hour on ice, plasma diluted 100-fold): 6.7 ± 1.6 nM
C[C@]12C=CC(=O)C=C1CCC1C2C(=O)C[C@@]2(C)C1CC[C@]2(O)C(=O)CO (stereo partly drawn) [Prednisone, prednisone]			IC50 (transcortin (CBG); [3]): 36 ± 11 nM
C[C@]12CCC(=O)C=C1CC[C@@H]1[C@@H]2[C@@H](O)C[C@]2(C=O)[C@@H](C(=O)CO)CC[C@@H]12 [aldosterone]	2	−6.279	
C[C@]12CCC(O)C[C@@H]1CC[C@@H]1[C@@H]2CC[C@]2(C)[C@@H](O)CC[C@@H]12 (stereo partly drawn) [androstanediol]	3	−5.000	
CCCC1O[C@@H]2C[C@H]3[C@@H]4CCC5=CC(=O)C=C[C@]5(C)[C@H]4[C@@H](O)C[C@]3(C)[C@]2(C(=O)CO)O1 (stereo partly drawn) [budesonide (BUD), budesonide]			IC50 (transcortin (CBG); [4]): > 10000 nM
CC(=O)OCC(=O)[C@@]1(O)CC[C@H]2[C@@H]3CCC4=CC(=O)CC[C@]4(C)[C@H]3[C@@H](O)C[C@@]21C [cortisolacetat]	1	−7.553	
C[C@]12CCC(=O)C=C1CC[C@@H]1[C@@H]2C(=O)C[C@@]2(C)[C@H]1CC[C@]2(O)C(=O)CO [cortisone]	2	−6.892	
C[C@]12CC[C@H](O)CC1=CC[C@@H]1[C@@H]2CC[C@]2(C)C(=O)CC[C@@H]12 [dehydroepiandrosterone]	3	−5.000	
C[C@]12C[C@@H](O)[C@H]3[C@@H](CCC4=CC(=O)CC[C@@]43C)[C@@H]1CC[C@@H]2C(=O)CO [epicorticosterone]	1	−7.200	
C[C@]12CC[C@@H]3c4ccc(O)cc4CC[C@H]3[C@@H]1C[C@@H](O)[C@@H]2O [estriol]	3	−5.000	
CC(=O)[C@H]1CC[C@H]2[C@@H]3CC=C4C[C@@H](O)CC[C@]4(C)[C@H]3CC[C@]12C [pregnenolone]	3	−5.225	
CC(=O)[C@H]1CC[C@H]2[C@@H]3CCC4=CC(=O)CC[C@]4(C)[C@H]3CC[C@]12C [progesterone]	1	−7.380	
C[C@]12CC[C@H]3[C@@H](CCC4=CC(=O)CC[C@@]43C)[C@@H]1CC[C@@H]2O [testosterone]	2	−6.724	
